{
  "source": "patent US20100056519A1",
  "about": "“COMPOSITION AND METHOD FOR REDUCING PLATELET ACTIVATION AND FOR THE TREATMENT OF THROMBOTIC EVENTS” (priority 2008, published 2010)",
  "key": {"[1]": {"test_system": "platelets", "test": "Ultegra Rapid Platelet-Function Assay (RPFA-TRAP)", "assay_type": "cell-based, human", "settings": "for Platelet Activation Units (PAU): Mean ± SD", "description": "(§1) The methodology employed was conventional aggregation induced by 5 μM ADP, 1 μg/ml collagen, 10 μM TRAP, whole blood aggregation with 1 μg/ml collagen, Ultegra, and PFA-100 Analyzers, expression of 14 intact, and TRAP-stimulated major receptors by whole blood flow cytometry were utilized to assess platelet activity after preincubation with escalating concentrations of E5555 (20 ng/ml, 50 ng/ml, and 100 ng/ml). The experiments were performed in healthy volunteers, CAD patients treated with ASA, and CAD patients treated with ASA and clopidogrel combination (n=10, for each group).\n(§2) An Informed Consent was obtained from all volunteers. Drug users were excluded from data analysis. The study was approved by Quorum Institutional Review Board. All subjects underwent blood sampling after at least 30 minutes of rest and two or more hours of fasting. Blood (28 ml) was drawn between 8 and 10 a.m. in order to avoid any diurnal influence and sampled from an antecubital vein using a 21-gauge butterfly needle containing 3.2% sodium citrate (1:9 volume) after having discarded the first 1.5 ml of free running blood. Four Vacutainer tubes (7.0 ml) were collected for a total of 28 ml of whole blood-citrate mixture from each study participant. Chronologically, blood samples were delivered to the core laboratory facility within 45 minutes after drawing. Then all tubes of blood-citrate mixture were pooled. One portion of pooled blood (5 ml) was kept as an internal control and pretreated with the vehicle. The remaining blood (23 ml) was used for the in vitro exposure to E5555 at concentrations of 20 ng/ml, 50 ng/ml, and 100 ng/ml. […] The platelet aggregation studies, Rapid Analyzers measures, and flow cytometry preparations were initiated within no more than 110 minutes following the blood draw, incubation with the drug, and preparation of the samples.\nWhole blood aggregation was determined using a Chronolog device 592A. The whole blood-citrate mixture was diluted 1:1 with 0.5 ml phosphate buffered saline and gently swirled. The sample then was allowed to warm to 37° C. for 5 minutes then transferred to the assay well. The electrode was then placed in the cuvette and the sample was stimulated with 1 μg/ml collagen. The change in electrical impedance was digitally recorded. Each whole blood sample was analyzed utilizing 2 different clinical devices: • (1) a Rapid Platelet-Function Assay (Ultegra®) (Accumetrics, Inc., San Diego, Calif.), which is a rapid platelet-function assay aspirin cartridge test with TRAP used as agonist. Polystyrene beads coated with fibrinogen are placed in a cartridge along with the peptide that activates thrombin receptor. Anticoagulated whole blood was added to the cartridge, and agglutination between platelets and coated beads was recorded. The data mirrors turbidimetric platelet aggregation and presumably reflects platelet glycoprotein IIb/IIIa blockade. Ultegra RPFA-TRAP Assay results were reported as Platelet Activation Units (PAU); and • (2) Platelet-Function Analyzer PFA-100 ™ (Dade Behring, Deerfield Ill.), which is a high shear-inducing analyzer that simulates primary hemostasis after injury to a small vessel under flow conditions. The device provides a constant negative pressure that aspirates whole blood, which comes into contact with the collagen, coated membrane and then passes through the aperture. The time required to obtain occlusion of the aperture is digitally recorded. The time to aperture occlusion (the closure time) is recorded in seconds and is inversely related to the degree of shear-induced platelet activation. We used ADP/Collagen cartridges in the index study. Both PFA-100 and Ultegra assays were performed in duplicate. An electronic quality control test was performed on each instrument daily prior to performing any patient samples."}, "[2]": {"test_system": "GPIb (CD42b)", "test": "TRAP-stimulated whole blood flow cytometry, GPIb", "assay_type": "cell-based, human", "settings": "Mean ± SD", "description": "as §1, §2\nFormation of platelet-leukocyte aggregates was assessed by dual labeling with pan-platelet marker (CD151), and then with CD14, the macrophage receptor for endotoxin lipopolysaccharides (PharMingen, and Coulter, San Diego, Calif., USA). The tubes were then covered with aluminum foil and incubated at 37° C. for 40 minutes with gentle rotation. After incubation, samples were immediately analyzed on a Becton Dickinson FACScan flow cytometer. The instrument was set up to measure forward light scatter, and FITC fluorescence. All parameters were collected using four-decade logarithmic amplification. The data was retrieved in list mode files and then analyzed. P selectin was expressed as percent positive cells. Other antigens were expressed as log mean fluorescence intensity.\nFor flow cytometry (TRAP-stimulated) all of the above flow cytometry experiments were identically repeated utilizing prestimulation with 10 μmol/L TRAP for 5 minutes at 37° C. To determine statistics, a Paired Sign Test was used to define significance of differences between vehicle and E5555-treated groups. The Mann-Whitney U test was used to analyze nonparametric data. Normally distributed data were expressed as mean±standard error (m±SE), and skewed data as median (range). All P-values were two sided. All analysis was performed using the SPSS v9.0 program (SPSS Inc., Chicago, Ill.)."}, "[3]": {"settings": "E5555 20 ng/ml, Patients (ASA + C)"}, "[4]": {"settings": "E5555 50 ng/ml, Patients (ASA + C)"}, "[5]": {"settings": "E5555 100 ng/ml, Patients (ASA + C)"}, "[6]": {"settings": "E5555 100 ng/ml, Patients (ASA)"}},
  "data": [
    {"molecule": "Br.CCOc1cc2c(c(F)c1OCC)C(=N)N(CC(=O)c1cc(N3CCOCC3)c(OC)c(C(C)(C)C)c1)C2", "note": "[E5555, 1-(3-tert-butyl-4-methoxy-5-morpholinophenyl)-2-(5,6-diethoxy-7-fluoro-1-imino-1,3-dihydro-2H-isoindol-2-yl)ethanone hydrobromide]", "values": [
      {"measurement": "Platelet Activation Units (PAU)", "setting": "[1]; [3]", "value": "115 ± 21", "unit": "PAU"},
      {"measurement": "Platelet Activation Units (PAU)", "setting": "[1]; E5555 20 ng/ml, Patients (ASA)", "value": "118 ± 12", "unit": "PAU"},
      {"measurement": "Platelet Activation Units (PAU)", "setting": "[1]; E5555 20 ng/ml, Volunteers", "value": "270 ± 30", "unit": "PAU"},
      {"measurement": "Platelet Activation Units (PAU)", "setting": "[1]; [4]", "value": "108 ± 20", "unit": "PAU"},
      {"measurement": "Platelet Activation Units (PAU)", "setting": "[1]; E5555 50 ng/ml, Patients (ASA)", "value": "114 ± 11", "unit": "PAU"},
      {"measurement": "Platelet Activation Units (PAU)", "setting": "[1]; E5555 50 ng/ml, Volunteers", "value": "126 ± 20", "unit": "PAU"},
      {"measurement": "Platelet Activation Units (PAU)", "setting": "[1]; [5]", "value": "112 ± 18", "unit": "PAU"},
      {"measurement": "Platelet Activation Units (PAU)", "setting": "[1]; [6]", "value": "113 ± 14", "unit": "PAU"},
      {"measurement": "Platelet Activation Units (PAU)", "setting": "[1]; E5555 100 ng/ml, Volunteers", "value": "117 ± 21", "unit": "PAU"},
      {"measurement": "Platelet Analyzer readings, fibrinogen binding, effect in words", "setting": "[1]; overall summary", "value": "diminished fibrinogen binding"},
      {"measurement": "Ultegra Analyzer PAU, effect in words", "setting": "[1]; volunteers and CAD patients on ASA alone or with clopidogrel", "value": "reduction of PAU"},
      {"measurement": "GPIb (CD42b), Mean Fluorescence Intensity", "setting": "[2]; [3]", "value": "105 ± 14", "unit": "MFI"},
      {"measurement": "GPIb (CD42b), Mean Fluorescence Intensity", "setting": "[2]; E5555 20 ng/ml, Patients (ASA)", "value": "102 ± 9", "unit": "MFI"},
      {"measurement": "GPIb (CD42b), Mean Fluorescence Intensity", "setting": "[2]; E5555 20 ng/ml, Volunteers", "value": "134 ± 17", "unit": "MFI"},
      {"measurement": "GPIb (CD42b), Mean Fluorescence Intensity", "setting": "[2]; [4]", "value": "102 ± 19", "unit": "MFI"},
      {"measurement": "GPIb (CD42b), Mean Fluorescence Intensity", "setting": "[2]; E5555 50 ng/ml, Patients (ASA)", "value": "104 ± 17", "unit": "MFI"},
      {"measurement": "GPIb (CD42b), Mean Fluorescence Intensity", "setting": "[2]; E5555 50 ng/ml, Volunteers", "value": "125 ± 24", "unit": "MFI"},
      {"measurement": "GPIb (CD42b), Mean Fluorescence Intensity", "setting": "[2]; [5]", "value": "137 ± 18", "unit": "MFI"},
      {"measurement": "GPIb (CD42b), Mean Fluorescence Intensity", "setting": "[2]; [6]", "value": "100 ± 14", "unit": "MFI"},
      {"measurement": "GPIb (CD42b), Mean Fluorescence Intensity", "setting": "[2]; E5555 100 ng/ml, Volunteers", "value": "150 ± 26", "unit": "MFI"}
    ]}
  ]
}
